Data on eight compounds can be found in patent US8530492B2, “Oligomer-protein tyrosine kinase inhibitor conjugates” (Nektar Therapeutics, priority 2009, dated 2013).

The series has as its system Caco-2 cells. Briefly: Caco-2 permeability (bi-directional; pH 7.4/pH 7.4). Type of series: in vitro ADME, human. To be noted: Caco-2, 10 μM, 120 minutes. The method, then:
Caco-2 cells are used as an in vitro model of the human intestinal epithelium and permit assessment of the intestinal permeability of potential drugs. Test compound is added to either the apical or basolateral side of a confluent monolayer of Caco-2 cells and permeability is measured by monitoring the appearance of the test compound on the opposite side of the membrane using LC-MS/MS. Apparent permeability (Papp) coefficients, efflux ratio for the test compound and recovery values were determined.
To measure the permeability of test compound in the apical to basolateral (A-B) and basolateral to apical (B-A) direction across Caco-2 cells.
Caco-2 cells obtained from the ATCC are used between passage numbers 40-60. Cells are seeded on to Millipore Multiscreen Caco-2 plates at 1×10^5 cells/cm^2. They are cultured for 20 days in DMEM and media is changed every two or three days. On day 20 the permeability study is performed.
On day 20, the monolayers are prepared by rinsing both basolateral and apical surfaces twice with HBSS at 37° C. Cells are then incubated with HBSS in both apical and basolateral compartments for 40 min to stabilize physiological parameters. HBSS is then removed from the apical compartment and replaced with test compound dosing solutions. […] The fluorescent integrity marker lucifer yellow is also included in the dosing solution. Analytical standards are made from dosing solutions. The apical compartment inserts are then placed into ‘companion’ plates containing fresh HBSS. For basolateral to apical (B-A) permeability determination the experiment is initiated by replacing buffer in the inserts then placing them in companion plates containing dosing solutions. At 120 minutes the companion plate is removed and apical and basolateral samples diluted for analysis by LC-MS/MS. Test compound permeability was assessed in duplicate. On each plate, compounds of known permeability characteristics were run as controls.
Test and control compounds were quantified by LC-MS/MS cassette analysis using a 5-point calibration with appropriate dilution of the samples. Cyprotex generic analytical conditions were used. The starting concentration (C0) and experimental recovery were calculated from both apical and basolateral compartment concentrations.
The integrity of the monolayers throughout the experiment was checked by monitoring lucifer yellow permeation using fluorimetric analysis. Lucifer yellow permeation is low if monolayers have not been damaged. […] If lucifer yellow Papp values are above QC limits in both replicate wells for a test compound, the compound was re-tested.
Data Analysis: The permeability coefficient for each compound (Papp) is calculated from the following equation:
[formula] wherein dQ/dt is the rate of permeation of the drug across the cells, C0 is the donor compartment concentration at time zero and A is the area of the cell monolayer. C0 is obtained from analysis of donor and receiver compartments at the end of the incubation period. It is assumed that all of the test compound measured after 120 minutes incubation was initially present in the donor compartment at 0 minutes. An efflux ratio (ER) is derived as follows:
Talinolol (a known P-gp substrate) is also included as a control compound to assess whether functional P-gp is present in the Caco-2 cell monolayer.
For the compound `COCCOCCOCCOCCOCCOCCOCCNCc1ccc(C(=O)Nc2ccc(C)c(Nc3nccc(-c4cccnc4)n3)c2)cc1`, the Permeability (apparent permeability, Papp (A-B)) was determined as 0.04 ± 0.01 ×10⁻⁶ cm/s. Turning to `COCCOCCOCCNCc1ccc(C(=O)Nc2ccc(C)c(Nc3nccc(-c4cccnc4)n3)c2)cc1` [mPEG3-N-Imatinib], the Permeability (apparent permeability, Papp (A-B)) came out at 0.6 ± 0.07 ×10⁻⁶ cm/s. For `COCCOCCOCCN1CCN(Cc2ccc(C(=O)Nc3ccc(C)c(Nc4nccc(-c5cccnc5)n4)c3)cc2)CC1` [mPEG3-N′-Imatinib], the Permeability (apparent permeability, Papp (A-B)) is 4 ± 0.8 ×10⁻⁶ cm/s. For the compound `COCCOCCOCCOCCOCCNCc1ccc(C(=O)Nc2ccc(C)c(Nc3nccc(-c4cccnc4)n3)c2)cc1` [mPEG5-N-Imatinib], the Permeability (apparent permeability, Papp (A-B)) came out at 0.05 ± 0.02 ×10⁻⁶ cm/s. Take `COCCOCCOCCOCCOCCN1CCN(Cc2ccc(C(=O)Nc3ccc(C)c(Nc4nccc(-c5cccnc5)n4)c3)cc2)CC1` [mPEG5-N′-Imatinib]: the Permeability (apparent permeability, Papp (A-B)) is 1 ± 0.2 ×10⁻⁶ cm/s. On to `COCCOCCOCCOCCOCCOCCOCCN1CCN(Cc2ccc(C(=O)Nc3ccc(C)c(Nc4nccc(-c5cccnc5)n4)c3)cc2)CC1` [mPEG7-N′-Imatinib], for which the Permeability (apparent permeability, Papp (A-B)) came out at 0.3 ± 0.01 ×10⁻⁶ cm/s. Take `COCCOCCOCCOCCOCCOCCOCCOCCOCCNCc1ccc(C(=O)Nc2ccc(C)c(Nc3nccc(-c4cccnc4)n3)c2)cc1` [mPEG9-N-Imatinib]: the Permeability (apparent permeability, Papp (A-B)) worked out at 0.01 ± 0.004 ×10⁻⁶ cm/s. As to `COCCOCCOCCOCCOCCOCCOCCOCCOCCN1CCN(Cc2ccc(C(=O)Nc3ccc(C)c(Nc4nccc(-c5cccnc5)n4)c3)cc2)CC1` [mPEG9-N′-Imatinib], the Permeability (apparent permeability, Papp (A-B)) came out at 0.05 ± 0.02 ×10⁻⁶ cm/s.
